# Experimental data taken from ChEMBL document CHEMBL1123898, “Antitumor imidazotetrazines. 14. Synthesis and antitumor activity of 6- and 8-substituted imidazo[5,1-d]-1,2,3,5-tetrazinones and 8-substituted pyrazolo[5,1-d]-1,2,3,5-tetrazinones” (1987).
# Key:
# [1] = Antitumor activity was assessed against L1210 tumors in B6D2F1 mouse by inoculation of 10e5 tumor cells through intravenous route and mean death of animals (treated/control) was reported at 100 mg/kg peroral dose; format: functional; details: route oral
# [2] = Antitumor activity was assessed against L1210 tumors in B6D2F1 mouse by inoculation of 10e5 tumor cells through intravenous route and mean death of animals (treated/control) was reported at 50 mg/kg peroral dose; format: functional; details: route oral
# [3] = Antitumor activity was assessed against L1210 tumors in B6D2F1 mouse by inoculation of 10e5 tumor cells through intravenous route and mean death of animals (treated/control) was reported at 200 mg/kg peroral dose; format: functional; details: route oral
# L1210 [4] = assay: Antitumor activity was assessed against L1210 tumors in B6D2F1 mouse by inoculation of 10e5 tumor cells through iv route and mean death of animals (treated/control) was reported at 50 mg/kg po dose; format: functional
# [5] = Antitumor activity was assessed against TLX5 tumors in CBA/CA mouse by inoculation of 2 x 10e5 tumor cells through sc route and mean death of animals (treated/control) was reported at 40 mg/kg ip dose; format: functional; details: route subcutaneous
# [6] = Antitumor activity was assessed against TLX5 tumors in CBA/CA mouse by inoculation of 2 x 10e5 tumor cells through sc route and mean death of animals (treated/control) was reported at 20 mg/kg ip dose; format: functional; details: route subcutaneous
# L1210 [7] = assay: Antitumor activity was assessed against L1210 tumors in B6D2F1 mouse by inoculation of 10e5 tumor cells through iv route and mean death of animals (treated/control) was reported at 100 mg/kg po dose; format: functional
# L1210 [8] = assay: Antitumor activity was assessed against L1210 tumors in B6D2F1 mouse by inoculation of 10e5 tumor cells through iv route and mean death of animals (treated/control) was reported at 200 mg/kg po dose; format: functional
# L1210 [9] = assay: Antitumor activity was assessed against L1210 tumors in B6D2F1 mouse by inoculation of 10e5 tumor cells through iv route and number of Survivors to duration was reported at 200 mg/kg po dose; 1/7; format: functional
# L1210 [10] = assay: Antitumor activity was assessed against L1210 tumors in B6D2F1 mouse by inoculation of 10e5 tumor cells through iv route and number of Survivors to duration was reported at 100 mg/kg po dose; 5/7; format: functional
# [11] = Antitumor activity was assessed against TLX5 tumors in CBA/CA mouse by inoculation of 2 x 10e5 tumor cells through sc route and mean death of animals (treated/control) was reported at 10 mg/kg ip dose; format: functional; details: route subcutaneous
# L1210 [12] = assay: Antitumor activity was assessed against L1210 tumors in B6D2F1 mouse by inoculation of 10e5 tumor cells through iv route and mean death of animals (treated/control) was reported at 25 mg/kg po dose; format: functional
# [13] = Antitumor activity was assessed against TLX5 tumors in CBA/CA mouse by inoculation of 2 x 10e5 tumor cells through sc route and mean death of animals (treated/control) was reported at 160 mg/kg ip dose; format: functional; details: route subcutaneous
# [14] = Antitumor activity was assessed against TLX5 tumors in CBA/CA mouse by inoculation of 2 x 10e5 tumor cells through sc route and mean death of animals (treated/control) was reported at 80 mg/kg ip dose; format: functional; details: route subcutaneous
# L1210 [15] = assay: Antitumor activity was assessed against L1210 tumors in B6D2F1 mouse by inoculation of 10e5 tumor cells through intravenous route and mean death of animals (treated/control) was reported at 20 mg/kg peroral dose; format: functional; details: route oral
# [16] = Antitumor activity was assessed against TLX5 tumors in CBA/CA mouse by inoculation of 2 x 10e5 tumor cells through subcutaneous route and mean death of animals (treated/control) was reported at 80 mg/kg dose; format: functional
# [17] = Antitumor activity was assessed against TLX5 tumors in CBA/CA mouse by inoculation of 2 x 10e5 tumor cells through subcutaneous route and number of Survivors to duration was reported at 80 mg/kg iv dose; 3/5
# [18] = Antitumor activity was assessed against TLX5 tumors in CBA/CA mouse by inoculation of 2 x 10e5 tumor cells through subcutaneous route and mean death of animals (treated/control) was reported at 20 mg/kg dose; format: functional
# [19] = Antitumor activity was assessed against TLX5 tumors in CBA/CA mouse by inoculation of 2 x 10e5 tumor cells through subcutaneous route and number of Survivors to duration was reported at 40 mg/kg iv dose; 5/5
# L1210 [20] = assay: Antitumor activity was assessed against L1210 tumors in B6D2F1 mouse by inoculation of 10e5 tumor cells through intravenous route and mean death of animals (treated/control) was reported at 10 mg/kg peroral dose; format: functional; details: route oral
# [21] = Antitumor activity was assessed against TLX5 tumors in CBA/CA mouse by inoculation of 2 x 10e5 tumor cells through subcutaneous route and mean death of animals (treated/control) was reported at 40 mg/kg dose; format: functional
# L1210 [22] = assay: Antitumor activity was assessed against L1210 tumors in B6D2F1 mouse by inoculation of 10e5 tumor cells through intraperitoneal route and number of Survivors to duration was reported at 40 mg/kg peroral dose; 4/10; details: route oral
# [23] = Antitumor activity was assessed against TLX5 tumors in CBA/CA mouse by inoculation of 2 x 10e5 tumor cells through subcutaneous route and mean death of animals (treated/control) was reported at 160 mg/kg dose; format: functional
# L1210 [24] = assay: Antitumor activity was assessed against L1210 tumors in B6D2F1 mouse by inoculation of 10e5 tumor cells through intravenous route and mean death of animals (treated/control) was reported at 40 mg/kg peroral dose; format: functional; details: route oral
# L1210 [25] = assay: Antitumor activity was assessed against L1210 tumors in B6D2F1 mouse by inoculation of 10e5 tumor cells through intraperitoneal route and number of Survivors to duration was reported at 20 mg/kg peroral dose; 8/10; details: route oral
# [26] = Antitumor activity was assessed against TLX5 tumors in CBA/CA mouse by inoculation of 2 x 10e5 tumor cells through subcutaneous route and number of Survivors to duration was reported at 20 mg/kg ip dose; 3/5; format: functional
# [27] = Antitumor activity was assessed against TLX5 tumors in CBA/CA mouse by inoculation of 2 x 10e5 tumor cells through subcutaneous route and number of Survivors to duration was reported at 40 mg/kg ip dose; 1/5; format: functional
# L1210 [28] = assay: Antitumor activity was assessed against L1210 tumors in B6D2F1 mouse by inoculation of 10e5 tumor cells through intravenous route and number of Survivors to duration was reported at 20 mg/kg peroral dose; 6/7; format: functional; details: route oral
# L1210 [29] = assay: Antitumor activity was assessed against L1210 tumors in B6D2F1 mouse by inoculation of 10e5 tumor cells through intravenous route and mean death of animals (treated/control) was reported at 5 mg/kg peroral dose; format: functional; details: route oral
# [30] = Antitumor activity was assessed against TLX5 tumors in CBA/CA mouse by inoculation of 2 x 10e5 tumor cells through subcutaneous route and number of Survivors to duration was reported at 40 mg/kg ip dose; 4/5; format: functional
# [31] = Antitumor activity was assessed against TLX5 tumors in CBA/CA mouse by inoculation of 2 x 10e5 tumor cells through subcutaneous route and mean death of animals (treated/control) was reported at 10 mg/kg ip dose; format: functional
# L1210 [32] = assay: Antitumor activity was assessed against L1210 tumors in B6D2F1 mouse by inoculation of 10e5 tumor cells through intravenous route and number of Survivors to duration was reported at 40 mg/kg peroral dose; 1/7; format: functional; details: route oral
# [33] = Antitumor activity was assessed against TLX5 tumors in CBA/CA mouse by inoculation of 2 x 10e5 tumor cells through subcutaneous route and mean death of animals (treated/control) was reported at 5 mg/kg ip dose; format: functional
# [34] = Antitumor activity was assessed against TLX5 tumors in CBA/CA mouse by inoculation of 2 x 10e5 tumor cells through subcutaneous route and mean death of animals (treated/control) was reported at 20 mg/kg ip dose; format: functional
# [35] = Antitumor activity was assessed against TLX5 tumors in CBA/CA mouse by inoculation of 2 x 10e5 tumor cells through subcutaneous route and mean death of animals (treated/control) was reported at 40 mg/kg ip dose; format: functional
# L1210 [36] = assay: Antitumor activity was assessed against L1210 tumors in B6D2F1 mouse by inoculation of 10e5 tumor cells through intravenous route and mean death of animals (treated/control) was reported at 80 mg/kg peroral dose; format: functional; details: route oral
# L1210 [37] = assay: Antitumor activity was assessed against L1210 tumors in B6D2F1 mouse by inoculation of 10e5 tumor cells through intravenous route and mean death of animals (treated/control) was reported at 160 mg/kg peroral dose; format: functional; details: route oral
structure (smiles),measurement,setting,value
NC(=O)c1nc(CCc2ccccc2)n2c(=O)n(CCCl)nnc12,T/C,[1],100%
same,T/C,[2],100%
same,T/C,[3],100%
NC(=O)c1cnn2c(=O)n(CCCl)nnc12,T/C,L1210 [4],186%
same,T/C,[5],116%
same,T/C,[6],123%
same,T/C,L1210 [7],>530%
same,T/C,L1210 [8],363%
same,Survivors,L1210 [9],1
same,Survivors,L1210 [10],5
same,T/C,[11],98%
same,T/C,L1210 [12],120%
same,T/C,[13],221%
same,T/C,[14],143%
CN(C)C(=O)c1ncn2c(=O)n(CCCl)nnc12,T/C,L1210 [15],>290%
same,T/C,[16],>358%
same,Survivors,[17],3
same,T/C,[18],161%
same,Survivors,[19],5
same,T/C,L1210 [20],197%
same,T/C,[21],>508%
same,Survivors,L1210 [22],4
same,T/C,[23],68%
same,T/C,L1210 [24],>235%
same,Survivors,L1210 [25],8
CNS(=O)(=O)c1ncn2c(=O)n(CCCl)nnc12,T/C,L1210 [15],>666%
same,Survivors,[26],3
same,T/C,[16],68%
same,Survivors,[27],1
same,T/C,[18],>375%
same,T/C,L1210 [20],283%
same,T/C,[21],>203%
same,T/C,L1210 [24],25%
same,Survivors,L1210 [28],6
NC(=O)c1ncn2c(=O)n(CCCl)nnc12 [MITOZOLOMIDE],T/C,L1210 [29],133%
same,T/C,L1210 [15],217%
same,Survivors,[30],4
same,T/C,[31],163%
same,Survivors,L1210 [32],1
same,T/C,L1210 [20],178%
same,T/C,L1210 [24],>330%
same,T/C,[33],113%
same,T/C,[34],167%
same,T/C,[35],>458%
O=C(NCc1ccccc1)c1ncn2c(=O)n(CCCl)nnc12,T/C,L1210 [36],130%
same,T/C,L1210 [37],183%
same,T/C,L1210 [24],100%
